In brackets after ≈: the same amount, converted by molar mass. Where two headings read alike, the source gives them in different places.
Tests used:
[1] = Chemical stability testing in DMSO, ACN/H2O, ACN/0.1N HCl, ACN/0.1N NaOH (% by LCMS); format: physicochemical
Description: Preliminary Protocol • Add 3 μl of a 10 mM DMSO stock solution to 1 ml of the following solvents in a 1.5 ml HPLC vial. • DMSO (reference solution) • H2O/Acetonitril 1/1 (assay solution) • 0.1N HCl/Acetonitril 1/1 (assay solution) • Mix well, […] LCMS • Compare the chromatograms of the two assay solutions with the reference solution and report the additional peaks as degradation peaks

hERG = hERG (Homo sapiens, UniProt Q12809); test: sync hERG; format: cell-based
[2] = LM Clint (microsomal stability), human; format: in vitro ADME; conditions: h (human) liver microsomes; read-out: LM Clint
Text: (§1) The compounds of the invention/examples may have advantages associated with in vitro potency, kill kinetics (i.e. bactericidal effect) in vitro, PK properties, food effect, safety/toxicity (including liver toxicity, coagulation, 5-LO oxygenase), metabolic stability, Ames II negativity, MINT negativity, aqueous based solubility (and ability to formulate) and/or cardiovascular effect e.g. on animals (e.g. anesthetized guinea pig). Data that is generated/calculated may be obtained using standard methods/assays, for instance that are available in the literature or which may be performed by a supplier (e.g. Microsomal Stability Assay—Cyprotex, Mitochondrial toxicity (Glu/Gal) assay—Cyprotex, as well as literature CYP cocktail inhibition assays). GSH can be measured (reactive metabolites, […]) to observe if a dihydrodiol is observed by LCMS (fragmentation ions), which would correspond to a dihydroxylation on the core heterocycle.

in vitro [3] = conditions: mouse, plasma
in vitro [4] = conditions: human, plasma
[5] = test system: CYPs (all isoforms, or the isoforms not named for that compound); test: CYP cocktail inhibition, all / other isoforms; format: in vitro ADME; conditions: read-out: CYPS IC50 (all / others)
Text: as §1

AMES II = conditions: score
Text: as §1

[6] = Mitochondrial toxicity (Glu/Gal) assay; format: cell-based; conditions: for Glu/Gal: Gal: galactose medium; for Glu/Gal: Glu: glucose medium
Text: as §1

[7] = MDCK permeability / efflux; conditions: dog, MDCK
MDCK = MDCK permeability / efflux; conditions: A to B with inhibitor
[8] = test system: Mycobacterium tuberculosis strain (EH4.0, GFP-expressing; Test 2: H37Rv); test: MIC determination against M. tuberculosis, Test 1 (and/or Test 2); format: cell-based; conditions: 7 days incubation, fluorescence; for IC50: Mycobacterium tuberculosis, H37RV, 168 h
physchem [9] = test: physchem
physchem [10] = format: physicochemical; conditions: thermodynamic from solid
Text: as §1

physchem [11] = format: physicochemical
2C9 = 2C9 (Homo sapiens, UniProt P11712); test: CYP cocktail inhibition, 2C9; format: in vitro ADME; conditions: read-out: CYPS IC50 2C9
Text: as §1

hERG, sequence (Q12809 whole entry): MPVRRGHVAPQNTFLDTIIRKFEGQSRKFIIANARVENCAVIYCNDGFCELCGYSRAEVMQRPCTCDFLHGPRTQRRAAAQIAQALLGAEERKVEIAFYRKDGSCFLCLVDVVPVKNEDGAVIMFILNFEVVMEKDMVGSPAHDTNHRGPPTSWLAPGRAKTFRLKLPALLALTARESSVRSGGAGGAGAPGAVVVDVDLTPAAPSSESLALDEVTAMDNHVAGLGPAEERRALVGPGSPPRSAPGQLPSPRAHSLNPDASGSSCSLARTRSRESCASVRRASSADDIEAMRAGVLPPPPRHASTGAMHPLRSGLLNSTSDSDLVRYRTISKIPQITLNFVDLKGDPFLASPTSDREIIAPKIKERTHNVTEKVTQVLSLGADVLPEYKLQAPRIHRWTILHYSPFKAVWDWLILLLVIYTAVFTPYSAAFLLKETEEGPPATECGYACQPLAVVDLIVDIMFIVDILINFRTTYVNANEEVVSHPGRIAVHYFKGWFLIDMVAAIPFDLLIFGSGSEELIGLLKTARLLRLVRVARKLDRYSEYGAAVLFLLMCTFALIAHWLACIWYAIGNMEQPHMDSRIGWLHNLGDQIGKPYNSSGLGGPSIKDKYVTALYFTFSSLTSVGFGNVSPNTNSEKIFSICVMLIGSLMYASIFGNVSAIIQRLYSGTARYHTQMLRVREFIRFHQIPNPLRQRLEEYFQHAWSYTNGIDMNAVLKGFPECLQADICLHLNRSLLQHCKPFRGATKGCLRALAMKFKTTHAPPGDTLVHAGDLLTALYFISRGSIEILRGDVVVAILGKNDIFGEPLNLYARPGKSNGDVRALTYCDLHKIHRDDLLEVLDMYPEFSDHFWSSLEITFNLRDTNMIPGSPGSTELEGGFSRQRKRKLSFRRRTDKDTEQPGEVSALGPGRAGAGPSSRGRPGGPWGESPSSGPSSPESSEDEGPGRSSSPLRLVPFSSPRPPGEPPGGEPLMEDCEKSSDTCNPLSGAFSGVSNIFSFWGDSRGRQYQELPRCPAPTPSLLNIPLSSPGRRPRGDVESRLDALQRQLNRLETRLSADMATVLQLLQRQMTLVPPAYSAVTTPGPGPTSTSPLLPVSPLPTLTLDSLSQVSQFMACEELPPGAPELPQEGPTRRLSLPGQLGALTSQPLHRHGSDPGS
2C9, sequence (P11712 whole entry): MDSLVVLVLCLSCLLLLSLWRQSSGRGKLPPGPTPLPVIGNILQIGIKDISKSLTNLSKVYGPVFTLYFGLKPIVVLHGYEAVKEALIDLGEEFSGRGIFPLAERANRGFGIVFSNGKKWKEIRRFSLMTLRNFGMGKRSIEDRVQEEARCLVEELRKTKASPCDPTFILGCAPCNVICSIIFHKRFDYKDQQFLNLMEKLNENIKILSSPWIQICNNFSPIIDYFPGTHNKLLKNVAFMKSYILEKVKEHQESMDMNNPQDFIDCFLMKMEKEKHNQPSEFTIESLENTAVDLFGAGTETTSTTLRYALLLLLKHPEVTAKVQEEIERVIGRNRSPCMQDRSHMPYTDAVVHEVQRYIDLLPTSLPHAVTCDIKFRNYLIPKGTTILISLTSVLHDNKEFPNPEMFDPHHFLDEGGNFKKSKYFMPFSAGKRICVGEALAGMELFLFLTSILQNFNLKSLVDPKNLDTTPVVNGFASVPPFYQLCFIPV

With CCc1nc2ncc(Cl)cn2c1C(=O)NCc1ccc(-c2nc3n(n2)CCN(S(=O)(=O)C(F)(F)F)C3)cc1 [Compound 2] as the compound, how does the “chemical stability (% by LCMS)” value ([1]; 72 h, 30 µM) read?
Its value is 100%.

And the “chemical stability (% by LCMS)” value ([1]; 72 h, 30 µM, pH 1.6)?
The value was 90.52%.

What about the IC50 (hERG) of the same compound?
The IC50 was greater than 30000 nM.

What about the microsomal CLint [2] of the same compound?
The microsomal CLint was 9.3 µL/min/mg.

And the fraction unbound (in vitro [3])?
The fraction unbound was 0.0054.

What about the fraction unbound (in vitro [4]) of the same compound?
Its fraction unbound is 0.0117.

And the IC50 [5]?
The IC50 was greater than 20000 nM.

And the “AMES II” value (AMES II)?
The value was 1.

What about the “Glu/Gal: Gal” value [6] of the same compound?
The value was greater than 100.

What about the “Glu/Gal: Glu” value [6] of the same compound?
The value was greater than 100.

What about the efflux ratio [7] of the same compound?
The efflux ratio was 12.6.

What about the “MDCK AB+inh” value (MDCK) of the same compound?
Its value is 32.5.

What about the IC50 [8] of the same compound?
Its IC50 is 10 nM.

What about the solubility (physchem [9]; fassif) of the same compound?
The solubility was less than 5 µM.

What about the solubility (physchem [9]; fessif) of the same compound?
Its solubility is 24.4 µM (≈ 13.9 µg/mL).

And the solubility thermodynamic (physchem [10]; pH 2, simulated gastric fluid)?
The solubility thermodynamic was 0.99 µM (≈ 0.563 µg/mL).

What about the solubility thermodynamic (physchem [10]; pH 7, aqueous buffer) of the same compound?
The solubility thermodynamic was less than 0.13 µM.

What about the purity (physchem [11]; 0.065 mg/mL in SGF with 20% ACN, at 0 hr) of the same compound?
The purity was 99.56%.

And the purity (physchem [11]; 0.065 mg/mL in SGF with 20% ACN, at 0.25 hr)?
Its purity is 99.38%.

What about the purity (physchem [11]; 0.065 mg/mL in SGF with 20% ACN, at 0.5 hr) of the same compound?
Its purity is 99.21%.

And the purity (physchem [11]; 0.065 mg/mL in SGF with 20% ACN, at 1 hr)?
Its purity is 98.89%.

And the purity (physchem [11]; 0.065 mg/mL in SGF with 20% ACN, at 2 hr)?
Its purity is 98.28%.

And the purity (physchem [11]; 0.065 mg/mL in SGF with 20% ACN, at 4 hr)?
Its purity is 97.1%.

And the half-life at 0.065 mg/mL (physchem [11]; simulated gi fluid)?
Its half-life at 0.065 mg/mL is 113 h.

For O=C(NCc1ccc(-c2nc3n(n2)CCN(S(=O)(=O)C(F)(F)F)C3)c(F)c1)c1c(C(F)(F)F)nc2ccccn12 [Compound 6], which “chemical stability (% by LCMS)” value ([1]; 48 h, 30 μM) is on record?
Its value is 100%.

What about the “chemical stability (% by LCMS)” value ([1]; 48 h, 30 μM, pH 1.6) of the same compound?
The value was 100%.

What about the IC50 [8] of the same compound?
Its IC50 is 83.2 nM.

What about the purity (physchem [11]; 0.052 mg/mL in SGF with 33.3% ACN, remained so up to 4 hrs) of the same compound?
The purity was 99.88%.

For CCc1nc2ncc(C)cn2c1C(=O)NCc1ccc(-c2nc3n(n2)CCN(S(=O)(=O)C(F)(F)F)C3)c(F)c1 [Compound 7], which “chemical stability (% by LCMS)” value ([1]; 72 h, 30 µM) is on record?
Its value is 100%.

What about the “chemical stability (% by LCMS)” value ([1]; 72 h, 30 µM, pH 1.6) of the same compound?
Its value is 100%.

What about the IC50 (hERG) of the same compound?
The IC50 was greater than 30000 nM.

What about the microsomal CLint [2] of the same compound?
Its microsomal CLint is 22.6 µL/min/mg.

And the IC50 (2C9)?
Its IC50 is 15500 nM.

And the IC50 ([5]; human)?
Its IC50 is greater than 20000 nM.

What about the “Glu/Gal: Gal” value [6] of the same compound?
Its value is greater than 200.

What about the “Glu/Gal: Glu” value [6] of the same compound?
Its value is greater than 200.

What about the efflux ratio [7] of the same compound?
Its efflux ratio is 61.7.

And the “MDCK AB+inh” value (MDCK)?
Its value is 21.4.

What about the IC50 [8] of the same compound?
Its IC50 is 8.51 nM.

What about the solubility thermodynamic (physchem [10]; pH 2, simulated gastric fluid) of the same compound?
Its solubility thermodynamic is 125 µM (≈ 70.8 µg/mL).

And the solubility thermodynamic (physchem [10]; pH 7, aqueous buffer)?
Its solubility thermodynamic is 1.62 µM (≈ 0.918 µg/mL).

For CCc1nc2cc(OC)c(Cl)cn2c1C(=O)NCc1ccc(-c2nc3n(n2)CCN(S(=O)(=O)C(F)(F)F)C3)c(F)c1 [Compound 10], which “chemical stability (% by LCMS)” value ([1]; 72 h, 30 µM) is on record?
The value was 97.03%.

And the “chemical stability (% by LCMS)” value ([1]; 72 h, 30 µM, pH 1.6)?
Its value is 100%.

And the IC50 [8]?
The IC50 was greater than 500 nM.

For CCc1nc2nc(N)c(Cl)cn2c1C(=O)NCc1ccc(-c2nc3n(n2)CCN(S(=O)(=O)C(F)(F)F)C3)c(F)c1 [Compound 12], which “chemical stability (% by LCMS)” value ([1]; 72 h, 30 µM) is on record?
Its value is 96.14%.

And the “chemical stability (% by LCMS)” value ([1]; 72 h, 30 µM, pH 1.6)?
The value was 97.06%.

What about the IC50 [8] of the same compound?
Its IC50 is 93.3 nM.

Which results are given for CCc1nc2cc(N)c(Cl)cn2c1C(=O)NCc1ccc(-c2nc3n(n2)CCN(S(=O)(=O)C(F)(F)F)C3)c(F)c1 [Compound 14]?
chemical stability (% by LCMS) ([1]; 72 h, 30 µM): 100%; chemical stability (% by LCMS) ([1]; 72 h, 30 µM, pH 1.6): 100%; IC50 [8]: 105 nM

With CCc1nc2ccc(Cl)cn2c1C(=O)NCc1cnc(-c2nc3n(n2)CCN(S(=O)(=O)C(F)(F)F)C3)c(F)c1 [Compound 15] as the compound, how does the “chemical stability (% by LCMS)” value ([1]; 72 h, 30 µM) read?
Its value is 97.03%.

What about the “chemical stability (% by LCMS)” value ([1]; 72 h, 30 µM, pH 1.6) of the same compound?
Its value is 97.49%.

And the IC50 [8]?
Its IC50 is 501 nM.

With CCc1nc2ccc(C)cn2c1C(=O)NCc1ccc(-c2nc3n(n2)CCN(S(=O)(=O)C(F)(F)F)C3)cc1 [Compound 24] as the compound, how does the “chemical stability (% by LCMS)” value ([1]; 0 h, 30 μM) read?
Its value is 100%.

And the “chemical stability (% by LCMS)” value ([1]; 0 h, 30 μM, pH 1.6)?
Its value is 100%.

And the “chemical stability (% by LCMS)” value ([1]; 0 h, 30 μM, pH 9)?
The value was 89.46%.

What about the “chemical stability (% by LCMS)” value ([1]; 48 h, 30 μM) of the same compound?
Its value is 100%.

And the “chemical stability (% by LCMS)” value ([1]; 48 h, 30 μM, pH 1.6)?
Its value is 100%.

What about the “chemical stability (% by LCMS)” value ([1]; 48 h, 30 μM, pH 9) of the same compound?
Its value is 43.8%.

And the IC50 [8]?
Its IC50 is 8.91 nM.

With Cc1cnc2nc(C3CC3)c(C(=O)NCc3ccc(-c4nc5n(n4)CCN(S(=O)(=O)C(F)(F)F)C5)cc3)n2c1 [Compound 42] as the compound, how does the “chemical stability (% by LCMS)” value ([1]; 48 h, 30 μM) read?
Its value is 100%.

What about the “chemical stability (% by LCMS)” value ([1]; 48 h, 30 μM, pH 1.6) of the same compound?
Its value is 100%.

And the IC50 [8]?
The IC50 was 5.01 nM.

For CCc1nc2ncc(C)cn2c1C(=O)NCc1ccc(-c2cc3n(n2)CCN(S(=O)(=O)C(F)(F)F)C3)cc1 [Compound 44], which “chemical stability (% by LCMS)” value ([1]; 48 h, 30 μM) is on record?
The value was 100%.

And the “chemical stability (% by LCMS)” value ([1]; 48 h, 30 μM, pH 1.6)?
The value was 100%.

And the IC50 [8]?
Its IC50 is 2.19 nM.

With CCc1nc2ncc(C)cn2c1C(=O)NCc1ccc(-c2nc3n(n2)CCN(S(=O)(=O)N2CCCC2)C3)cc1 [Compound 47] as the compound, how does the “chemical stability (% by LCMS)” value ([1]; 48 h, 30 μM) read?
Its value is 99%.

What about the “chemical stability (% by LCMS)” value ([1]; 48 h, 30 μM, pH 1.6) of the same compound?
Its value is 100%.

What about the IC50 [8] of the same compound?
Its IC50 is 20 nM.

For CCc1nc2ncc(C)cn2c1C(=O)NCCc1ccc(-c2nc3n(n2)CCN(S(=O)(=O)C(F)(F)F)C3)cc1 [Compound 66], which “chemical stability (% by LCMS)” value ([1]; ACN/0.1N HCl (pH 1.6; 48 hr, rt)) is on record?
Its value is 98%.

And the “chemical stability (% by LCMS)” value ([1]; ACN/H2O (48 hr, rt))?
The value was 98%.

What about the “chemical stability (% by LCMS)” value ([1]; DMSO (0 hr, rt)) of the same compound?
The value was 91%.

And the pIC50 [8]?
The pIC50 was 6.57.

— patent US20240182495A1, “ANTIBACTERIAL COMPOUNDS” (JANSSEN SCIENCES IRELAND UNLIMITED COMPANY, priority 2021, published 2024)
